In patent US8962608B2, “Cycloalkylnitrile pyrazole carboxamides as janus kinase inhibitors” (Merck Sharp & Dohme Corp., priority 2011, dated 2015):

The compounds below were run against JAK1 (recombinant purified GST-tagged catalytic domain) (Homo sapiens (Human), UniProt P23458) (assay: biochemical).
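Also: biochemical assay with HTRF read-out.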

JAK1 (recombinant purified GST-tagged catalytic domain), sequence (P23458 875-1153): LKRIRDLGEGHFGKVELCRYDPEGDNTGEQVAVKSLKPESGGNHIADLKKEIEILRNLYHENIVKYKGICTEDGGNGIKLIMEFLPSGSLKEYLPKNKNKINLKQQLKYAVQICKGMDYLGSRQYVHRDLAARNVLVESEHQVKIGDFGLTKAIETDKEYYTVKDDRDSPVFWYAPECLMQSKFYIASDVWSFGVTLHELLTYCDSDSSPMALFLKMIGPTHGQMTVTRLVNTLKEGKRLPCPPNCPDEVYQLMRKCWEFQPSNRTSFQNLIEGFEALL

Row | IC50 [nM] | SMILES
1 | 20 | CN(C)[C@H]1CC[C@H](n2cc(C(N)=O)c(Nc3ccc(F)cc3)n2)[C@@H](C#N)C1 (single isomer, unassigned) [Example 28-129, 1-[(1S,2S,4S or 1R,2R,4R)-2-cyano-4-(dimethylamino)cyclohexyl]-3-[(4-fluorophenyl)amino]-1H-pyrazole-4-carboxamide]
2 | 2 | COCC(C)N[C@H]1CCC(n2cc(C(N)=O)c(Nc3ccc(Cl)cc3)n2)[C@@H](C#N)C1 (single isomer, unassigned) [Example 28-238, 3-[(4-chlorophenyl)amino]-1-[(1S,2S,4S or 1R,2R,4R)-2-cyano-4-{[(1S)-2-methoxy-1-methylethyl]amino}cyclohexyl]-1H-pyrazole-4-carboxamide]
3 | 0.2 | N#C[C@H]1CCCC[C@@H]1n1cc(C(N)=O)c(Nc2ccc([C@H](O)C(F)(F)F)nc2)n1 (single isomer, unassigned) [Example 17-50, 1-[(1S,2S or 1R,2R)-2-cyanocyclohexyl]-3-({6-[(1S or 1R)-2,2,2-trifluoro-1-hydroxyethyl]pyridin-3-yl}amino)-1H-pyrazole-4-carboxamide]
4 | 3 | N#C[C@H]1C[C@@H](C(=O)N2CC(F)C2)CC[C@@H]1n1cc(C(N)=O)c(Nc2ccc(Cl)cc2)n1 (single isomer, unassigned) [Example 35-34, 3-[(4-chlorophenyl)amino]-1-{(1S,2S,4S or 1R,2R,4R)-2-cyano-4-[(3-fluoroazetidin-1-yl)carbonyl]cyclohexyl}-1H-pyrazole-4-carboxamide]
5 | 3 | N#C[C@H]1C[C@@H](N2CC(F)C2)CC[C@@H]1n1cc(C(N)=O)c(Nc2ccc(C(F)(F)F)cc2)n1 (single isomer, unassigned) [Example 28-105, 1-[(1S,2S,4S or 1R,2R,4R)-2-cyano-4-(3-fluoroazetidin-1-yl)cyclohexyl]-3-{[4-(trifluoromethyl)phenyl]amino}-1H-pyrazole-4-carboxamide]
6 | 3 | C[C@H]1C[C@H](C)N1[C@H]1CC[C@H](n2cc(C(N)=O)c(Nc3ccc(C(F)(F)F)cc3)n2)[C@@H](C#N)C1 (single isomer, unassigned) [Example 28-21, 1-{(1S,2S,4S or 1R,2R,4R)-2-cyano-4-[(2S,4S or 2R,4R)-2,4-dimethylazetidin-1-yl]cyclohexyl}-3-{[4-(trifluoromethyl)phenyl]amino}-1H-pyrazole-4-carboxamide]
7 | 5 | C[C@H]1C[C@H](C)N1[C@@H]1CC[C@H](n2cc(C(N)=O)c(Nc3ccc(C(F)(F)F)cc3)n2)[C@@H](C#N)C1 (single isomer, unassigned) [Example 28-20, 1-{(1S,2S,4R or 1R,2R,4S)-2-cyano-4-[(2S,4S or 2R,4R)-2,4-dimethylazetidin-1-yl]cyclohexyl}-3-{[4-(trifluoromethyl)phenyl]amino}-1H-pyrazole-4-carboxamide]
8 | 0.3 | CC(C)(C(=O)O)c1ccc(Nc2nn([C@H]3CC[C@@H](N4CCC4)C[C@@H]3C#N)cc2C(N)=O)cc1 (single isomer, unassigned) [Example 28-80, 2-[4-({1-[(1S,2S,4R or 1R,2R,4S)-4-azetidin-1-yl-2-cyanocyclohexyl]-4-carbamoyl-1H-pyrazol-3-yl}amino)phenyl]-2-methylpropanoic acid]
9 | 2 | COCC(C)(C)N(C)[C@H]1CCC(n2cc(C(N)=O)c(Nc3ccc(Cl)cc3)n2)[C@@H](C#N)C1 (single isomer, unassigned) [Example 28-234, 3-[(4-chlorophenyl)amino]-1-{(1S,2S,4S or 1R,2R,4R)-2-cyano-4-[(2-methoxy-1,1-dimethylethyl)(methyl)ami-no]cyclohexyl}-1H-pyrazole-4-carboxamide]
10 | 0.6 | N#C[C@H]1C[C@H](N2CC3(CCC3)C2)CC[C@@H]1n1cc(C(N)=O)c(Nc2ccc(C(F)(F)F)cc2)n1 (single isomer, unassigned) [Example 28-24, 1-[(1S,2S,4R or 1R,2R,4S)-4-(2-azaspiro[3.3]hept-2-yl)-2-cyanocyclohexyl]-3-{[4-(trifluoromethyl)phenyl]amino}-1H-pyrazole-4-carboxamide]
11 | 0.4 | CN(C)[C@@H]1CCC(n2cc(C(N)=O)c(Nc3ccc(S(=O)(=O)C(F)(F)F)cc3)n2)[C@@H](C#N)C1 (mixture of isomers) [Example 27-7, 1-[(1S,2S,4R and 1R,2R,4S)-2-cyano-4-(dimethylamino)cyclohexyl]-3-({4-[(trifluoromethyl)sulfonyl]phenyl}amino)-1H-pyrazole-4-carboxamide]
12 | 0.3 | CN(C)[C@H]1CCC(n2cc(C(N)=O)c(Nc3ccc(S(=O)(=O)C(F)(F)F)cc3)n2)[C@@H](C#N)C1 (mixture of isomers) [Example 27-8, 1-[(1S,2S,4S and 1R,2R,4R)-2-cyano-4-(dimethylamino)cyclohexyl]-3-({4-[(trifluoromethyl)sulfonyl]phenyl}amino)-1H-pyrazole-4-carboxamide]
13 | 0.85 | C=C[C@@]1(O)CC[C@H](n2cc(C(N)=O)c(Nc3ccc(Cl)cc3)n2)[C@@H](C#N)C1 (single isomer, unassigned) [Example 32-16, 3-[(4-chlorophenyl)amino]-1-[(1S,2S,4R or 1R,2R,4S)-2-cyano-4-ethenyl-4-hydroxycyclohexyl]-1H-pyrazole-4-carboxamide]
14 | 1 | N#C[C@H]1C[C@H](O)CCC1n1cc(C(N)=O)c(Nc2ccnc(F)c2)n1 (single isomer, unassigned) [Example 25-21, 1-[(1S,2S,4R or 1R,2R,4S)-2-cyano-4-hydroxycyclohexyl]-3-[(2-fluoropyridin-4-yl)amino]-1H-pyrazole-4-carboxamide]
15 | 9 | N#C[C@@H]1C[C@H](C(=O)N[C@@H](C2CC2)C(F)(F)F)CC[C@H]1n1cc(C(N)=O)c(Nc2ccc(Cl)cc2)n1 (single isomer, unassigned) [Example 35-16, 3-[(4-chlorophenyl)amino]-1-[(1R,2R,4R or 1S,2S,4S)-2-cyano-4-{[(1S)-1-cyclopropyl-2,2,2-trifluoroethyl]carbamoyl}cyclohexyl]-1H-pyrazole-4-carboxamide]
16 | 3 | CN[C@H]1CCC(n2cc(C(N)=O)c(Nc3ccc(S(=O)(=O)C(F)(F)F)cc3)n2)[C@@H](C#N)C1 (mixture of isomers) [Example 27-9, 1-[(1S,2S,4S and 1R,2R,4R)-2-cyano-4-(methylamino)cyclohexyl]-3-({4-[(trifluoromethyl)sulfonyl]phenyl}amino)-1H-pyrazole-4-carboxamide]
17 | 2 | N#C[C@@H]1CCCC[C@H]1n1cc(C(N)=O)c(Nc2ccc3c(c2)CCS3(=O)=O)n1 (single isomer, unassigned) [Example 45-6, 1-[(1S,2R or 1R,2S)-2-cyanocyclohexyl)-3-[(1,1-dioxido-2,3-dihydro-1-benzothiophen-5-yl)amino]-1H-pyrazole-4-carboxamide]
18 | 12 | N#C[C@H]1C[C@H](NCC(F)(F)F)CC[C@@H]1n1cc(C(N)=O)c(Nc2ccc(Cl)cc2)n1 (single isomer, unassigned) [Example 28-225, 3-[(4-chlorophenyl)amino]-1-{(1S,2S,4R or 1R,2R,4S)-2-cyano-4-[(2,2,2-trifluoroethyl)amino]cyclohexyl}-1H-pyrazole-4-carboxamide]
19 | 0.8 | COCC(C)(C)N[C@H]1CCC(n2cc(C(N)=O)c(Nc3ccc(Cl)cc3)n2)[C@@H](C#N)C1 (single isomer, unassigned) [Example 28-222, 3-[(4-chlorophenyl)amino]-1-{(1S,2S,4S or 1R,2R,4R)-2-cyano-4-[(2-methoxy-1,1-dimethylethyl)amino]cyclo-hexyl}-1H-pyrazole-4-carboxamide]
20 | 11 | CN(CCC(F)(F)F)[C@@H]1CC[C@H](n2cc(C(N)=O)c(Nc3ccc(S(=O)(=O)C(F)(F)F)cc3)n2)[C@@H](C#N)C1 (single isomer, unassigned) [Example 28-170, 1-{(1S,2S,4R or 1R,2R,4S)-2-cyano-4-[methyl(3,3,3-trifluoropropyl)amino]cyclohexyl}-3-({4-[(trifluoromethyl)sulfonyl]phen-yl]amino)-1H-pyrazole-4-carboxamide]
21 | 9 | N#C[C@H]1C[C@@H](C(=O)N[C@H](C2CC2)C(F)(F)F)CC[C@@H]1n1cc(C(N)=O)c(Nc2ccc(Cl)cc2)n1 (single isomer, unassigned) [Example 35-14, 3-[(4-chlorophenyl)amino]-1-[(1S,2S,4S or 1R,2R,4R)-2-cyano-4-{[(1R)-1-cyclopropyl-2,2,2-trifluoroethyl]carbamoyl}cyclohexyl]-1H-pyrazole-4-carboxamide]
22 | 3 | N#C[C@H]1C[C@H](O)CCC1n1cc(C(N)=O)c(Nc2ccnc(F)c2)n1 (mixture of isomers) [Example 15, 1-[(1S,2S,4R and 1R,2R,4S)-2-Cyano-4-hydroxycyclohexyl]-3-[(2-fluoropyridin-4-yl)amino]-1H-pyrazole-4-carboxamide]
23 | 12 | CC1(N[C@@H]2CCC(n3cc(C(N)=O)c(Nc4ccc(Cl)cc4)n3)[C@@H](C#N)C2)CC1 (single isomer, unassigned) [Example 28-206, 3-[(4-chlorophenyl)amino]-1-{(1S,2S,4R or 1R,2R,4S)-2-cyano-4-[(1-methylcyclopropyl)amino]cyclo-hexyl}-1H-pyrazole-4-carboxamide]
24 | 0.45 | CC(C)(C(=O)O)c1ccc(Nc2nn([C@H]3CCC(N4CCC4)C[C@@H]3C#N)cc2C(N)=O)cc1 (single isomer, unassigned) [Example 28-72, 2-[4-({1-[(1S,2S or 1R,2R)-4-azetidin-1-yl-2-cyanocyclohexyl]-4-carbamoyl-1H-pyrazol-3-yl}amino)phenyl]-2-methylpropanoic acid]
25 | 0.22 | N#C[C@H]1CC(NC2COC2)CC[C@@H]1n1cc(C(N)=O)c(Nc2ccc(S(=O)(=O)C(F)(F)F)cc2)n1 (single isomer, unassigned) [Example 28-155, 1-[(1S,2S or 1R,2R)-2-cyano-4-(oxetan-3-ylamino)cyclohexyl]-3-({4-[(trifluoromethyl)sulfonyl]phen-yl}amino)-1H-pyrazole-4-carboxamide]
